Two compounds from patent publication US20260232578A1, “COMPOSITIONS AND METHODS FOR TRANSMUCOSAL ABSORPTION” (Tonix Pharma Limited, priority 2012, published 2026) can be followed below.

Series [1] concerns the target muscarinic M2 receptor (Homo sapiens, UniProt P08172). Put plainly: Equilibrium receptor binding, recombinant human receptor. The arrangement: expressed in transfected cells.
For series [2], the target named is T1, muscarinic M1 receptor (Homo sapiens, UniProt P11229).
T1 sequence (P11229 1-460): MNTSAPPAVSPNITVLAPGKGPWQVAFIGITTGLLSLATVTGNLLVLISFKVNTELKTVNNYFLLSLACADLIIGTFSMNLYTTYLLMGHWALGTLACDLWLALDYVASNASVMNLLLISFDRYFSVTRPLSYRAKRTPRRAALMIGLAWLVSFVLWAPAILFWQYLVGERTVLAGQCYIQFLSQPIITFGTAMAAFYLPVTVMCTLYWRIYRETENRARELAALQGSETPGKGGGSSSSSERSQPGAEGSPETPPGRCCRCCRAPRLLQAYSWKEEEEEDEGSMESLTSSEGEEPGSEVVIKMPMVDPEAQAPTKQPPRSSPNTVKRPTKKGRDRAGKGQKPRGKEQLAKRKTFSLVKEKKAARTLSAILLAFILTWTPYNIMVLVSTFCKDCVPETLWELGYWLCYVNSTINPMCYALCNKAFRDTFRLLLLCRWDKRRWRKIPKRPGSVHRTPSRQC

The nature of series [3]: clinical. Particulars: human, in vivo, po, 5 mg. The procedure: The conditions used were as follows:
Quantitation was based on peak area ratio of the analytes versus their stable labeled internal standards. A weighted (1/C2), linear regression was performed to determine the concentration of the analytes. All regressions and figures presented in this validation report were generated by MDS Sciex Analyst version 1.4.2 and Thermo Electron Corporation Watson LIMS software, version 7.0.0.01b. […] Select receptors were analyzed in ligand-induced intracellular calcium mobilization.

Series [4] is described as follows: clinical. Particulars: human, in vivo, 2.4 mg. The procedure:
Treatment A: A single dose of one TNX-102 2.4 mg SL tablet (with phosphate). Subjects were asked to keep the tablet under the tongue until dissolved and not to crush or chew it. Subjects were asked not to drink any water until at least 1 hour after dosing.
Treatment B: A single dose of one TNX-102-A 2.4 mg SL tablet (without phosphate). Subjects were asked to keep the tablet under the tongue until dissolved and not to crush or chew it. Subjects were asked not to drink any water until at least 1 hour after dosing.
Treatment C: A single dose of two TNX-102 2.4 mg SL tablets (with phosphate). Subjects will be asked to keep the tablets under the tongue until dissolved and not to crush or chew them. Subjects were asked not to drink any water until at least 1 hour after dosing.
Subjects were asked to swallow the administered tablet whole and not to crush or chew it.
Partial AUC at different times were calculated to examine the effect of sublingual administration on absorption.

The conditions of series [5]: Beagle; for plasma level adjusted to 0.14 mg/kg: Hucker IV. The procedure: Doses were expressed as free base, and so should be adjusted by MW Free Base 275 g/mole/MW HCl salt 312 g/mole. […] In our Beagle studies, the dose was 0.14 mg/kg, which is approximately 1/12.6 the dose of the Hucker studies.

Read-outs that look alike come from different tables or passages of the source.

Chain of muscarinic M2 receptor (P08172 whole entry): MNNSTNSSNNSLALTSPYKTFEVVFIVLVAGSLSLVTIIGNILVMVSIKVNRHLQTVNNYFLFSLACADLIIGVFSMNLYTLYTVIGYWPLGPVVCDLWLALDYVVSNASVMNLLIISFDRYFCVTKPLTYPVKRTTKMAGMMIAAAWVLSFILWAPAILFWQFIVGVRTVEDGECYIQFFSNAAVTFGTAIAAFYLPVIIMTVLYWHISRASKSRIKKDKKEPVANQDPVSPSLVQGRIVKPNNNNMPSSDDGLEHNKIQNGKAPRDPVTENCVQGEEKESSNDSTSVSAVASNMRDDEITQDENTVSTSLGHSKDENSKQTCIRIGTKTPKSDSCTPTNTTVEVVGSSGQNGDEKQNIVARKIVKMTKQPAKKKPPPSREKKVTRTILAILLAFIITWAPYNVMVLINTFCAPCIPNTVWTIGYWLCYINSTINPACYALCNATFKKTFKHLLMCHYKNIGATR

As for `CNCCC=C1c2ccccc2C=Cc2ccccc21` [norcyclobenzaprine, 3-(5H-dibenzo[a,d]cyclohepten-5-ylidene)-N-methyl-1-propanamine], in series [1], the Ki came out at 76 nM. In addition, the “Hill plot ratio (Hill slope)” value in series [2] turned out to be 0.70.

In the case of `CN(C)CCC=C1c2ccccc2C=Cc2ccccc21` [cyclobenzaprine, 3-(5H-dibenzo[a,d]cyclohepten-5-ylidene)-N,N-dimethyl-1-propanamine], the AUC(0-t) in series [3] was 92.2 ± 29.9 ng·h/mL; in series [4] (AUC0-20min), roughly 0.04 ng·h/mL; in series [4] (AUC0-30min), roughly 0.13 ng·h/mL; in series [4] (AUC0-45min), roughly 0.33 ng·h/mL; in series [4] (AUC0-1 h), roughly 0.61 ng·h/mL; in series [4] (AUC0-2 h), roughly 2.1 ng·h/mL. Moreover, the AUC(0-t) was roughly 3.93 ng·h/mL in series [4] (AUC0-3 h); roughly 6.27 ng·h/mL in series [4] (AUC0-4 h); roughly 10.1 ng·h/mL in series [4] (AUC0-5.5 h); roughly 11.3 ng·h/mL in series [4] (AUC0-6 h); roughly 15.1 ng·h/mL in series [4] (AUC0-8 h); roughly 50.3 ng·h/mL in series [4] (AUC0-12 h). In series [4] (AUC0-[…] (second mention, after AUC0-[…])), this compound yielded an AUC(0-t) of roughly 8.81 ng·h/mL. In addition, the AUC(0-inf) in series [4] was roughly 61 ng·h/mL. Besides, the Cmax in series [4] is roughly 2.74 ng/mL. Further, the “plasma level adjusted to 0.14 mg/kg” value in series [5] (0.5 h) was 34.1 ng/mL; in series [5] (2 hours), 47.6 ng/mL; in series [5] (6 h), 35.7 ng/mL. In series [5] (Hucker PO gelatin capsule, at 2 hours), the “peak plasma level adjusted to 0.14 mg/kg” value came out at 115.9 ng/mL.
